These results are taken from US10463669B2, “Composition for treating or preventing liver cancer” (Seoul National University R&DB Foundation, priority 2016, dated 2019).

One assay has as its system THLE-3 cells. As to the kind of experiment: Cell proliferation / cell viability, MTS assay. It counts as cell-based, human. (In general: Tetrazolium dyes change colour on reduction, which living cells bring about.)
Assay [1] has as its system PI3K isotype p110δ expression in HCC cells. Conditions: HCC cells after treatment with H2O2. The protocol:
(§1) Medium was exchanged every day, and the aforementioned cells were cultured for 4 days in 300 μmol/L hydrogen peroxide (H2O2) (Sigma Aldrich; H1009). In several experiments, the cells were treated for 1 hour with 5 mmol/L N-acetylcysteine (NAC) (Sigma Aldrich; A7250), 25 μmol/L idelalisib (LC Laboratoties, Woburn, Mass., USA; I-7447), 25 μmol/L perifosine (LC Laboratoties, Woburn, Mass., USA; P-6522), or 30 μmol/L GSK3β inhibitor (GSK3β inhibitor XI) (Santa Cruz; sc-204770) (31) before adding H2O2. Furthermore, sterilized distilled water (pH 7.0) was used as a negative control (i.e., mock treatment).
PCR was carried out by using TOPrealm qPCR 2×PreMIX (SYBR Green with high ROX) (Enzynomics, Daejeon, Korea; RT501M) and ABI Prism 7300 thermal cycler (Applied Biosystems, Foster City, Calif., USA). […] To examine the primer specificity, a dissociation step was additionally included.

Assay [2] concerns Huh7 cells injected to subcutaneous tissues. As to the kind of experiment: In vivo tumorigenicity analysis (xenograft of pre-treated cells). On the set-up: species or system KSN/Slc nude mouse. On the procedure: The animal test was carried out according to the protocol which has been approved by Seoul National University Institutional Animal Care and Use Committee (Approval number: SNU-130225-6). The mouse was kept under usual conditions (i.e., semi-specific pathogen-free state), and allowed to have free access to food and water. For all xenografting studies, 5-week old KSN/Slc nude mouse was used. A mouse with bodyweight of 18 g to 20 g was used for the test. For the xenografting analysis, mock-treated 1×10^5 Huh7, 1×10^5 Huh7 treated only with 300 μmol/L H2O2, and 1×10^5 Huh7 treated with both of 25 μmol/L idelalisib and 300 μmol/L H2O2 were washed, harvested in PBS not containing Ca^2+ or Mg^2+, and subsequently injected in an amount of 0.2 mL to subcutaneous tissues. According to caliper measurement of two vertical diameters of a tumor (i.e., D1 as largest diameter and D2 as smallest diameter), the tumor product was monitored every week. The tumor volume was calculated by […].
Next, an examination was made to see whether or not idelalisib can have in vivo inhibition of tumor growth.

Assay [3] relates to telomere length in THLE-3 cells. As to the kind of experiment: Telomere length (immunoFISH, Flow FISH, quantitative PCR). It counts as cell-based, human. On the procedure: Flow FISH was carried out as described before (Rufer N, et al., Nat Biotechnol. 1998; 16: 743-7) with few modifications. The cells were washed twice with cold PBS (phosphate-buffered saline) solution containing 0.1% w/v bovine serum albumin (BSA). Subsequently, the cells were re-suspended in hybridization buffer (70% deionized formamide (Amresco, Solon, Ohio, USA), 20 mmol/L TrisHCl [pH 6.8], 1% BSA, and 1 nmol/L FAM-labeled telomere PNA (telomere peptide nucleic acid) probe ([…], Korea), or 1 nmol/L FAM-labeled centromere PNA probe ([…]). Volume of the hybridization buffer was adjusted to 100 μl per 10^5 cells. Next, each sample was cultured for 10 minutes in a water bath at 85° C. […] Total 15,000 to 20,000 nuclei were analyzed for the each separate culture. Telomere fluorescence intensity of the all nuclei at […] phase of the cell cycle was measured by using BD FACS Calibur flow cytometer (Becton Dickinson, Franklin Lakes, N.J., USA) in which CELLQUEST software is used. […] For quantification of the telomere fluorescence intensity, centromere fluorescence intensity, and 8-oxo-dG fluorescence intensity, the same exposure time was employed. The telomere fluorescence level and 8-oxo-dG fluorescence level of tumor tissues were calculated by division of the fluorescence level in non-tumor tissues corresponding to 5 random fields. […]

The subject of assay [4] is AKT phosphorylation in HCC cell lines (Huh7 and Hep3B). The experiment in a line: AKT phosphorylation, immunoblot assay. Conditions: HCC cells. It counts as cell-based, human. The protocol:
as §1
Total 2×10^5 cells were boiled for 5 minutes in 2×SDS sample buffer (100 mmol/L TrisHCl [pH 6.8], 4% SDS, 0.2% bromophenol blue, 20% glycerol, and 200 mmol/L β-mercaptoethanol), and then subjected to SDS-PAGE and Western blotting. To detect the TERT, the cells were cultured in 2×SDS sample buffer for 15 minutes at 55° C. TERT-specific (1:300, Rockland Immunochemicals, Gilbertsville, Pa., USA; 600-401-252), AKT-specific (1:1000, Cell Signaling Technology; #9272), phospho-AKT-specific (1:2000, Cell Signaling Technology; #4060), GAPDH-specific (1:2000, Santa Cruz Biotechnology; sc-47724), or β-actin-specific (1:2000, Sigma-Aldrich, St. Louis, Mo., USA; A5441) antibody was diluted in 5% skim milk or bovine serum albumin with TBS-Tween 20, cultured overnight at 4° C., washed, and cultured with HRP-conjugated secondary antibody (1:1000, Abcam; ab131368, or ab131366). By using FUSION-SOLO imager (Vilber Lourmat, Marne La Vallee, France), a chemical fluorescence image was obtained.

Setting [5] is: THLE-3 cells exposed to 150 μmol/L H2O2.

SMILES strings stand for the structures.

Regarding `OO` [H2O2, hydrogen peroxide], the “cells that did not survive” value in the assay with THLE-3 cells (setting [5]) is 85%. In addition, the “p110δ expression (only isotype among p110α, p110β, p110δ, p110γ)” value in assay [1] is “increased”. For the same compound, the “latency time till tumor development” value in assay [2] (nude mouse injected with 1×10^5 HCC cells treated with H2O2) was determined as 28 days. For the same compound, the telomere length result in assay [3] (setting [5]) is reported as “reduction”.
For `CC[C@H](Nc1ncnc2nc[nH]c12)c1nc2cccc(F)c2c(=O)n1-c1ccccc1` [idelalisib, 5-fluoro-3-phenyl-2-[(1S)-1-(7H-purin-6-ylamino)propyl]-4(3H)-quinazolinone], the IC50 with THLE-3 cells (Homo sapiens, THLE3, MTS assay, treated for 96 hours) was over 200 µM. For the same compound, the “time without tumor formation” value in assay [2] (nude mouse injected with HCC cells treated with both 300 μmol/L H2O2 and 25 μmol/L idelalisib) was over 70 days. Besides, the pAKT result in assay [4] is given as “inhibit”. Besides, in assay [3] (THLE-3 cells), the telomere length entry was “not reduced”.

Broadly, the IC50 is the concentration needed to halve the response being measured. A higher IC50 goes with a need for much substance.
